Experiment [1] concerns the target T1, Muscarinic acetylcholine receptor M2 (Rattus norvegicus, UniProt P10980).
T1 sequence (P10980 whole entry): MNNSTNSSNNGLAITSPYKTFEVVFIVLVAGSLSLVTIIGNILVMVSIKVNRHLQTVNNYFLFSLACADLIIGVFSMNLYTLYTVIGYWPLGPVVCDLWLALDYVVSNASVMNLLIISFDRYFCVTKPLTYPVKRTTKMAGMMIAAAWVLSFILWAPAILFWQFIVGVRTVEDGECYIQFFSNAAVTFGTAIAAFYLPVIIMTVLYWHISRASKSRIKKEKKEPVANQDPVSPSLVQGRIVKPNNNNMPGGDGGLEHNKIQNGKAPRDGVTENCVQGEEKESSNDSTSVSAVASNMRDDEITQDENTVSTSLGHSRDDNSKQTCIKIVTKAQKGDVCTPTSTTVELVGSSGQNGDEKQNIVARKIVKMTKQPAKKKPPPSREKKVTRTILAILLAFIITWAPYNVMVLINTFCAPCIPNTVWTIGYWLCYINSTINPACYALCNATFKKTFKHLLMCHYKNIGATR
The experiment in a line: Displacement of [3H]N-methylscopolamine from muscarinic M2 receptor in rat heart. In general terms: In a radioligand displacement assay an active substance lowers the binding of a labelled ligand.

Experiment [2] has as its target Muscarinic acetylcholine receptor M3 (Rattus norvegicus, UniProt P08483). The experiment in a line: Displacement of [3H]N-methylscopolamine from muscarinic M3 receptor in rat submandibular gland. It counts as tissue-based.

Structures are written as SMILES.

Muscarinic acetylcholine receptor M3, sequence (P08483 whole entry): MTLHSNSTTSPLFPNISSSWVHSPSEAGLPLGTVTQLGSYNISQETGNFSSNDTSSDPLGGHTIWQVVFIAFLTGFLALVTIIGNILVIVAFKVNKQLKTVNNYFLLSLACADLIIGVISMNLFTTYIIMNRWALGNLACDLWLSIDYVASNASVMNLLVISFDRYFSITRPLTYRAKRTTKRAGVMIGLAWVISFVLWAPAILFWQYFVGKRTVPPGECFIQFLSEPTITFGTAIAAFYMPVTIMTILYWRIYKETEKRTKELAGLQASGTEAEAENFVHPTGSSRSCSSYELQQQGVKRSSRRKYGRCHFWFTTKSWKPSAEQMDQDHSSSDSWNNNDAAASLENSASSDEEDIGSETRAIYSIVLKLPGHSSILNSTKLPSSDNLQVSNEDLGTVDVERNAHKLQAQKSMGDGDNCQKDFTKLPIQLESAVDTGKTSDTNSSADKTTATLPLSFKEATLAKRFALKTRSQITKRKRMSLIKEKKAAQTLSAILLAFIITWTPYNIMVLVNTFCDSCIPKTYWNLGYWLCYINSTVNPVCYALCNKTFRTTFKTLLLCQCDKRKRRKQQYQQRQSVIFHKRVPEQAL

What is called Ki is the equilibrium dissociation constant of an inhibitor or competing ligand from its target. The low end stands for tighter binding, the high end for weaker binding. For `CC(c1ccccc1)N1C[C@@H]2[C@H](C1)[C@H]2NC(=O)C(O)(c1ccccc1)C1CCCCCC1` (some centres undefined), the values for the Ki in experiment [1] and in experiment [2] were 39 nM and 1.8 nM, respectively.

On to `O=C(N[C@H]1[C@@H]2CN(Cc3ccc4ccccc4c3)C[C@@H]21)C(O)(c1ccccc1)C1CCCC1` (some centres undefined), for which the Ki in experiment [1] was 778 nM; in experiment [2], 42 nM.

For the molecule `O=C(N[C@H]1[C@@H]2CN(Cc3ccccc3)C[C@@H]21)C(O)(c1ccccc1)C1CCCC1` (some centres undefined), the inhibition constant (Ki) in experiment [1] worked out at 1420 nM; in experiment [2] it was 96 nM.

As to `O=C(N[C@H]1[C@@H]2CN(Cc3ccccc3)C[C@@H]21)C(O)c1ccccc1` (some centres undefined), the inhibitory constant (Ki) in experiment [1] and in experiment [2] was above 1000 nM in each case.

For `O=C(N[C@H]1[C@@H]2CN(CCc3ccc(Cl)cc3)C[C@@H]21)C(O)(c1ccccc1)C1CCCC1` (some centres undefined), the inhibition constant Ki is 298 nM in experiment [1] and 31.3 nM in experiment [2].

For the molecule `O=C(N[C@H]1[C@@H]2CN(Cc3ccccc3)C[C@@H]21)C(O)(c1ccccc1)C1CCCCCC1` (some centres undefined), the values for the Ki in experiment [1] and in experiment [2] were 349 nM and 6.8 nM, respectively.

On to `O=C(N[C@H]1[C@@H]2CN(Cc3ccccc3)C[C@@H]21)C(O)(c1ccccc1)C1CCCCC1` (some centres undefined), for which the Ki in experiment [1] was determined as 943 nM; in experiment [2] it was 31.7 nM.

With `O=C(N[C@H]1[C@@H]2CN(CCc3ccc4c(c3)OCO4)C[C@@H]21)C(O)(c1ccccc1)C1CCCC1` (some centres undefined), the Ki amounted to 277 nM in experiment [1] and 20 nM in experiment [2].

On to `O=C(N[C@H]1[C@@H]2CN(CCc3ccccc3)C[C@@H]21)C(O)(c1ccccc1)C1CCCC1` (some centres undefined), for which the Ki was 335 nM in experiment [1] and 9.3 nM in experiment [2].

For the molecule `COC(=O)c1ccc(CCN2C[C@@H]3[C@H](C2)[C@H]3NC(=O)C(O)(c2ccccc2)C2CCCC2)cc1` (some centres undefined), the values for the Ki in experiment [1] and in experiment [2] were 537 nM and 43.6 nM, respectively.

As for `Cc1ccc(CCN2C[C@@H]3[C@H](C2)[C@H]3NC(=O)C(O)(c2ccccc2)C2CCCC2)cc1C` (some centres undefined), the Ki came out at 812 nM in experiment [1] and 43.6 nM in experiment [2].

As for `O=C(N[C@H]1[C@@H]2CN(CCc3ccc4c(c3)OCO4)C[C@@H]21)[C@](O)(c1ccccc1)C1CCCC1`, the Ki was found to be 646 nM in experiment [1] and 12.3 nM in experiment [2].

In the case of `CC(C)=CCCN1C[C@@H]2[C@H](C1)[C@H]2NC(=O)[C@@](O)(c1ccccc1)C1CCCC1`, the inhibition constant Ki was 1140 nM in experiment [1] and 71 nM in experiment [2].

Regarding `CC(c1ccccc1)N1C[C@@H]2[C@H](C1)[C@H]2NC(=O)C(O)(c1ccccc1)C1CCCC1` (some centres undefined), the Ki stood at 630 nM in experiment [1] and 25.1 nM in experiment [2].

Regarding `O=C(N[C@H]1[C@@H]2CN(CCCc3ccccc3)C[C@@H]21)C(O)(c1ccccc1)C1CCCC1` (some centres undefined), the Ki in experiment [1] came out at 2630 nM; in experiment [2] it was 776 nM.

In the case of `O=C(N[C@H]1[C@@H]2CN(Cc3cccs3)C[C@@H]21)C(O)(c1ccccc1)C1CCCC1` (some centres undefined), the Ki in experiment [1] came to 3980 nM; in experiment [2] it was 524 nM.

For the molecule `Cc1ccc(C(C)N2C[C@@H]3[C@H](C2)[C@H]3NC(=O)C(O)(c2ccccc2)C2CCCC2)cc1` (some centres undefined), the inhibition constant Ki in experiment [1] came to 1230 nM; in experiment [2], 58.9 nM.

Take `CC(c1ccccc1)N1C[C@@H]2[C@H](C1)[C@H]2NC(=O)C(O)(c1ccccc1)C1CCCCC1` (some centres undefined): the Ki turned out to be 154 nM in experiment [1] and 5.9 nM in experiment [2].

For the molecule `NC(=O)C(c1ccccc1)(c1ccccc1)[C@@H]1CCN(CCc2ccc3c(c2)CCO3)C1` [DARIFENACIN], the Ki in experiment [1] stood at 63 nM.

In the case of `CC(C)=CCCN1C[C@@H]2[C@H](C1)[C@H]2NC(=O)C(O)(c1ccccc1)C1CCCC1` (some centres undefined), the values for the Ki in experiment [1] and in experiment [2] were 1370 nM and 33 nM, respectively.
